Measurements taken from PMC12254416, “The antimethanogenic efficacy and fate of bromoform and its transformation products in rumen fluid” (Scientific Reports, 2025).
Entries after “also recorded” stand apart in the source; their conditions may differ.

Legend:
[1] = Loss to headspace volume estimated from Henry's Law solubility constants; assay type: physicochemical; conditions: based on Henry's Law solubility constants, during the incubations
Method: Based on the Henry’s Law solubility constants for bromoform and dibromomethane, loss to the headspace volume during the incubations would have amounted to < 5% of the dissolved pool of either compound and therefore, had minimal influence on estimated loss and turnover rates. In contrast, approximately 40% of any bromomethane produced during the tracing experiments may have been lost to the headspace gas sampling and may have contributed to the lack of evidence of bromomethane production.

[2] = Compound tracing incubation in live rumen fluid (biotic plus inhibitor, B+); assay type: in vitro ADME, Holstein cattle; conditions: for Rate constant, biological loss: difference between total loss (B+) and abiotic loss (AC+); for ½ life, biological loss: from difference of B+ and AC+ rates; for ½ life, loss (total, biotic incubation) / Rate constant, loss (total, biotic incubation): live rumen fluid B+, 40 °C; for Rate constant, loss (total, biotic incubation): compound added alone
Excerpt: (§1) Animals used in this study were cared for according to the guidelines of William H. Miner Agricultural Research Institute (Chazy, NY) Animal Care and Use Committee. Rumen fluid was collected by cannulation from four healthy, lactating Holstein cattle maintained on the same diet for five weeks with approval from the William H. Miner Agricultural Research Institute (Chazy, NY) Animal Care and Use Committee and in compliance with SOP#106.
(§2) Donor cow profiles and dietary information can be found in supplemental information (Table S1 and Table S2). Rumen samples were strained through four layers of cheesecloth, placed on ice and shipped overnight to Bigelow Laboratory for Ocean Sciences at weekly intervals for three consecutive weeks. Upon arrival, the four samples were combined under anaerobic conditions. Sub-samples of the rumen fluid blend were flash-frozen in liquid nitrogen and stored at −20 °C for later analysis of initial pH, ammonia (NH3), and volatile fatty acids (VFAs). The rumen fluid blend was kept air-tight, on ice at 4 °C until used for experimental incubations within four days[34],[35].
(§3) This study utilized an in vitro technique of directly incubating rumen fluid for short-term experiments (< 6 h). The in vitro experiments were performed in accordance with guidelines reviewed in Yáñez-Ruiz et al.[36]. In order to investigate the response to and transformation of methanogenesis inhibitors, experiments included combinations of the following treatment groups: (i) biotic control (BC): live rumen fluid containing no inhibitors, (ii) biotic plus inhibitor (B+): live rumen fluid containing an inhibitor, (iii) abiotic control plus inhibitor (AC+): rumen fluid sterilized by autoclave (121 °C, 15 psi for 1 h) and containing an inhibitor. Prior to the incubation experiments, 80 ml aliquots of blended rumen fluid were added to 120 ml glass serum bottles and sealed with PTFE septa under anaerobic conditions (80% nitrogen, 15% carbon dioxide, 5% hydrogen). Experiments consisted of a series of 15 to 18 bottles of the same batch of refrigerated rumen fluid incubated in parallel. To revive the microbial activity at the start of each experiment, the incubation bottles, including the killed controls, were brought to 40 °C in a recirculating water bath within 15 min. The bottles thermally equilibrated for another 30 min before the experiment was initiated. The experiment was initiated after headspace sampling (T0) and the designated treatment was added. The incubation proceeded for ~ 4–6 h at 40 °C.
(§4) Two experimental designs were run: i) compound tracing experiments, to investigate the lifetime and transformation of inhibitors; and ii) dose-response experiments, to determine the sensitivity of methanogenesis to inhibitors (Fig. 1). Dose-response experiments included biotic controls (BC), and a series of nine biotic plus inhibitor treatments (B+) across a range of concentrations (0 to 25 µM) containing the specific inhibitor (bromoform (Sigma-Aldrich 99%), dibromomethane (Sigma-Aldrich 99%), bromomethane (Supelco TraceCERT®), or Asparagopsis taxiformis. The A. taxiformis was collected fresh from a marine site in the subtropical Atlantic (27° 59’ 19”, −15° 22’ 12”) and stored frozen at −20 °C. The sample material contained 0.33 ± 0.02 mg bromoform g^−1 dry weight.
(§5) Tracing experiment treatments included biotic controls (BC), biotic plus inhibitors (B+), and abiotic plus inhibitors (AC+) of a single concentration of the target compound, each in triplicate. Target compounds bromoform, dibromomethane, and bromomethane, were injected through the septa as solutions in methanol (VWR 99.9%). The corresponding levels of methanol, which ranged from 30 to 950 µl, were added to the control treatments, depending on the desired inhibitor concentration. The A. taxiformis was cut into fine pieces, homogenized, pre-weighed into PTFE capsules and placed in the incubation bottles prior to incubation. […]

[3] = system: CH4 production in rumen fluid; assay: CH4 production in in vitro rumen fluid incubations (dose-response and single-dose inhibition); assay type: cell-based, Holstein cattle; conditions: for maximum value of CH4 production (dose-response fit) / minimum value of CH4 production (dose-response fit): cumulative CH4 over 240 min, 80 ml rumen fluid; for maximum value of CH4 production (dose-response fit) / minimum value of CH4 production (dose-response fit) / EC50 / coefficient b of log-logistic dose-response curve: ± standard error; for EC50: cumulative CH4 over 240 min vs initial concentration, read-out: ec-50, 50 % inhibition of CH4 production; for coefficient b of log-logistic dose-response curve: cumulative CH4 production over 240 min vs initial inhibitor concentration; for Concentration range of the dose response: CH4 production vs inhibitor concentration, for bromomethane the extent of the range; for Concentration at which the sigmoidal concentration-inhibition relationship occurred: abstract; for CH4 production relative to the no treatment control: concentrations > 2 µmol l^−1; for Time after addition to reduced CH4 production: bromoform addition, vs control
Excerpt: as §1, §2, §3, §4, §5

[4] = Compound tracing incubation in autoclaved rumen fluid (abiotic control plus inhibitor, AC+); assay type: in vitro ADME, Holstein cattle
Excerpt: as §1, §2, §3, §4, §5

[5] = set-up: method as in earlier work; conditions: incubation times up to 72 h; ref 33 Romero et al.; cited from earlier work
[6] = bromoform-amended autoclaved rumen fluid (Exp1)
[7] = bromoform-amended live rumen fluid (Exp1)

SMILES	Loss to the headspace volume, share of the dissolved pool / of compound produced [1]	maximum value of CH4 production (dose-response fit) [3]	minimum value of CH4 production (dose-response fit) [3]	EC50 [3]	coefficient b of log-logistic dose-response curve [3]	½ life, abiotic loss ([4]; autoclaved rumen fluid AC+)	Rate constant, biological loss [2]	½ life, biological loss [2]	½ life, loss (total, biotic incubation) [2]	Rate constant, loss (total, biotic incubation) [2]	Concentration range of the dose response [3]	Concentration at which the sigmoidal concentration-inhibition relationship occurred [3]	CH4 production relative to the no treatment control [3]	also measured
CBr [bromomethane]	approximately 40%	616 ± 6 µmol	182 ± 7 µmol	5340 ± 140 nM	3.09 ± 0.24									Production of bromomethane in incubations ([2]; tracing incubations, limit of detection 8 nmol l^−1): no bromomethane was detected; also recorded: not detected; also recorded: no detectable bromomethane production; Concentration required to achieve a maximal inhibitory effect ([3]; CH4 production dose response (Exp7)): > 20 µmol/L; EC50 relative to bromoform and dibromomethane ([3]; higher): ~5 fold
BrCBr [dibromomethane]	< 5%	763 ± 16 µmol	146 ± 8 µmol	1360 ± 30 nM	7.46 ± 0.92	10200 min	-0.826 ± 0.113 x 10^-3min^-1	839 min	775 min	-0.894 ± 0.091 x 10^-3min^-1	1 to 2 µmol/L	1 to 2 µM	< 20%	Dibromomethane as % of the maximum bromoform concentrations, abiotic ([4]; AC + A.tax (Exp 4)): 1.3%; Dibromomethane at the end of the incubation after A. taxiformis addition, abiotic ([4]; AC + A.tax (Exp 4)): 0.030 ± 0.001 µmol/L; Dibromomethane abiotic production rate [4, 6]: 0.0014 ± 0.0001 µmol/L/min; Yield of dibromomethane, % of the initial bromoform added, abiotic [4, 6]: 3.4%; Yield of dibromomethane, % of the initial bromoform added, abiotic ([4]; bromoform-amended autoclaved rumen fluid (Exp1), listed as Dibromomethane): 3.4%; Dibromomethane produced as proportion of the degraded bromoform [5]: 20 to 40%; Peak dibromomethane as % of the highest observed bromoform, biotic ([2]; B + A.tax (Exp 4)): 22.0%; Peak level of dibromomethane after A. taxiformis addition, biotic ([2]; B + A.tax (Exp 4)): 0.076 ± 0.006 µmol/L; Dibromomethane production rate [2, 7]: 0.0353 ± 0.0024 µmol/L/min; Yield of dibromomethane, % of the initial bromoform added [2, 7]: 22.1%; Biotic loss slower than the loss of bromoform ([2]; dibromomethane vs bromoform, biotic): ~30 fold
BrC(Br)Br [bromoform]	< 5%	681 ± 14 µmol	98 ± 16 µmol	1370 ± 30 nM	5.98 ± 0.76	102 min	-19.6 ± 1.2 x 10^-3min^-1	35 min	~ 26 min	-26.4 ± 1.3 x 10^-3min^-1	1 to 2 µmol/L	1 to 2 µM	< 20%	Rate constant, abiotic loss ([4]; autoclaved rumen fluid AC+, 40 °C): -6.8 ± 0.3 x 10^-3min^-1; Loss rate in live rumen fluid relative to autoclaved control ([2]; B+ vs AC+): more than 3 fold; ½ life, loss (total, biotic incubation) ([2]; listed as Bromoform): 26 min; Inhibition threshold for CH4 production [3]: ~ 1 µmol l^−1; CH4 inhibition vs biotic control ([3]; bromoform 3 µmol l^−1, after 260 min (Exp 4)): 78%; Time after addition to reduced CH4 production [3]: < 60 min; Time after addition to reduced CH4 production ([3]; listed as CHBr3): ≤ 60 min; Inhibition of CH4 production ([3]; total bromoform addition of 3 µmol l^−1, ~300 min (Exp 3)): > 75%
